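All cell lines were grown in 96-well plates and treated with compound for 48 hours. TGI: concentration producing complete growth inhibition.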
Key:
Assay in all cases: inhibition of tumour cell growth, NCI panel, 48 h
ACHN renal = test system: ACHN renal
CAKI-1 renal = test system: CAKI-1 renal
MOLT-4 leukemia = test system: MOLT-4 leukemia
SK-MEL-5 melanoma = test system: SK-MEL-5 melanoma
HOP-18 NSCLC = test system: HOP-18 NSCLC
OVCAR-8 ovarian = test system: OVCAR-8 ovarian
NCI-H226 lung = test system: NCI-H226 lung
HCT-116 colon = test system: HCT-116 colon
SF-268 CNS = test system: SF-268 CNS
OVCAR-4 ovarian = test system: OVCAR-4 ovarian
TK-10 renal = test system: TK-10 renal
A498 renal = test system: A498 renal
SR leukemia = test system: SR leukemia
M19-MEL melanoma = test system: M19-MEL melanoma
NCI-H522 lung = test system: NCI-H522 lung
COLO 205 colon = test system: COLO 205 colon
LOX IMVI melanoma = test system: LOX IMVI melanoma
DLD-1 colon = test system: DLD-1 colon
MALME-3M melanoma = test system: MALME-3M melanoma
RXF-631 renal = test system: RXF-631 renal
SF-539 CNS = test system: SF-539 CNS
HCC-2998 colon = test system: HCC-2998 colon
SK-MEL-28 melanoma = test system: SK-MEL-28 melanoma
XF 498 CNS = test system: XF 498 CNS
NCI-H23 lung = test system: NCI-H23 lung
SNB-19 CNS = test system: SNB-19 CNS
A549 NSCLC = test system: A549 NSCLC
UACC-257 melanoma = test system: UACC-257 melanoma
U251 CNS = test system: U251 CNS
HOP-62 NSCLC = test system: HOP-62 NSCLC
KM12 colon = test system: KM12 colon
UO-31 renal = test system: UO-31 renal
DMS 114 small cell lung = test system: DMS 114 small cell lung
SK-OV-3 ovarian = test system: SK-OV-3 ovarian
HOP-92 NSCLC = test system: HOP-92 NSCLC
786-0 renal = test system: 786-0 renal
IGROV1 ovarian = test system: IGROV1 ovarian
RPMI-8226 leukemia = test system: RPMI-8226 leukemia
OVCAR-5 ovarian = test system: OVCAR-5 ovarian
RXF 393 renal = test system: RXF 393 renal
M14 melanoma = test system: M14 melanoma
DMS 273 small cell lung = test system: DMS 273 small cell lung
K-562 leukemia = test system: K-562 leukemia
SNB-78 CNS = test system: SNB-78 CNS
SF-295 CNS = test system: SF-295 CNS
EKVX NSCLC = test system: EKVX NSCLC
UACC-62 melanoma = test system: UACC-62 melanoma
LXFL 529 NSCLC = test system: LXFL 529 NSCLC
SK-MEL-2 melanoma = test system: SK-MEL-2 melanoma
SN12C renal = test system: SN12C renal
NCI-H460 lung = test system: NCI-H460 lung
SNB-75 CNS = test system: SNB-75 CNS
SW-620 colon = test system: SW-620 colon
CCRF-CEM leukemia = test system: CCRF-CEM leukemia
OVCAR-3 ovarian = test system: OVCAR-3 ovarian
HCT-15 colon = test system: HCT-15 colon
HT29 colon = test system: HT29 colon
HL-60(TB) leukemia = test system: HL-60(TB) leukemia
KM20L2 colon = test system: KM20L2 colon

Work on `COc1ccc(-c2nc(Sc3c([N+](=O)[O-])ncn3C)n[nH]2)cc1` yielded a TGI (ACHN renal) of 23.1 µM, a TGI (CAKI-1 renal) of over 100 µM and a TGI (MOLT-4 leukemia) of 9.56 µM. The TGI (SK-MEL-5 melanoma) was 6.83 µM, the TGI (HOP-18 NSCLC) was 5.53 µM and the TGI (OVCAR-8 ovarian) was 5.4 µM. The TGI (NCI-H226 lung) was 38.1 µM, the TGI (HCT-116 colon) was over 100 µM and the TGI (SF-268 CNS) was 21.1 µM. The TGI (OVCAR-4 ovarian) was 81.2 µM, the TGI (TK-10 renal) was 44.2 µM and the TGI (A498 renal) was 37.6 µM. For the same compound, the TGI (SR leukemia) was 37.3 µM, the TGI (M19-MEL melanoma) was over 100 µM and the TGI (NCI-H522 lung) was 5.75 µM. It also gave a TGI (COLO 205 colon) of 3.28 µM, a TGI (LOX IMVI melanoma) of 7.92 µM and a TGI (DLD-1 colon) of 6.82 µM. The TGI (MALME-3M melanoma) was 9.9 µM, the TGI (RXF-631 renal) was 22.2 µM and the TGI (SF-539 CNS) was 4.18 µM. It also gave a TGI (HCC-2998 colon) of 30.2 µM, a TGI (SK-MEL-28 melanoma) of 22 µM and a TGI (XF 498 CNS) of 9.78 µM. The TGI (NCI-H23 lung) was 3.97 µM, the TGI (SNB-19 CNS) was 39.3 µM and the TGI (A549 NSCLC) was over 100 µM. It also gave a TGI (UACC-257 melanoma) of 39.2 µM, a TGI (U251 CNS) of 5.55 µM and a TGI (HOP-62 NSCLC) of 89.9 µM. For the same compound, the TGI (KM12 colon) was 4.31 µM, the TGI (UO-31 renal) was over 100 µM and the TGI (DMS 114 small cell lung) was 6.64 µM. It also gave a TGI (SK-OV-3 ovarian) of over 100 µM, a TGI (HOP-92 NSCLC) of 8.88 µM and a TGI (786-0 renal) of 13.8 µM. For the same compound, the TGI (IGROV1 ovarian) was 77.3 µM, the TGI (RPMI-8226 leukemia) was 23.9 µM and the TGI (OVCAR-5 ovarian) was over 100 µM. For the same compound, the TGI (RXF 393 renal) was 4.28 µM, the TGI (M14 melanoma) was 4.96 µM and the TGI (DMS 273 small cell lung) was 4.77 µM. For the same compound, the TGI (K-562 leukemia) was over 100 µM, the TGI (SNB-78 CNS) was over 100 µM and the TGI (SF-295 CNS) was 16.5 µM. It also gave a TGI (EKVX NSCLC) of over 100 µM, a TGI (UACC-62 melanoma) of 11.1 µM and a TGI (LXFL 529 NSCLC) of 13 µM. For the same compound, the TGI (SK-MEL-2 melanoma) was 4.95 µM, the TGI (SN12C renal) was 8.23 µM and the TGI (NCI-H460 lung) was 69.1 µM. For the same compound, the TGI (SNB-75 CNS) was over 100 µM, the TGI (SW-620 colon) was over 100 µM and the TGI (CCRF-CEM leukemia) was 40.2 µM.
For `CN1CCCC2[C@@H]3CCC4=C(O)C(=O)CC[C@]4(C)C3CC[C@@]21C` (stereo partly specified), the TGI (ACHN renal) was over 100 µM, the TGI (CAKI-1 renal) was over 100 µM and the TGI (MOLT-4 leukemia) was over 100 µM. The TGI (SK-MEL-5 melanoma) was over 100 µM, the TGI (HOP-18 NSCLC) was over 100 µM and the TGI (OVCAR-8 ovarian) was over 100 µM. For the same compound, the TGI (NCI-H226 lung) was over 100 µM, the TGI (HCT-116 colon) was over 100 µM and the TGI (SF-268 CNS) was over 100 µM. The TGI (OVCAR-4 ovarian) was over 100 µM, the TGI (TK-10 renal) was over 100 µM and the TGI (A498 renal) was over 100 µM. It also gave a TGI (OVCAR-3 ovarian) of over 100 µM, a TGI (NCI-H522 lung) of over 100 µM and a TGI (COLO 205 colon) of over 100 µM. It also gave a TGI (LOX IMVI melanoma) of over 100 µM, a TGI (MALME-3M melanoma) of over 100 µM and a TGI (RXF-631 renal) of over 100 µM. The TGI (SF-539 CNS) was over 100 µM, the TGI (HCT-15 colon) was over 100 µM and the TGI (SK-MEL-28 melanoma) was over 100 µM. For the same compound, the TGI (XF 498 CNS) was over 100 µM, the TGI (NCI-H23 lung) was over 100 µM and the TGI (SNB-19 CNS) was over 100 µM. For the same compound, the TGI (A549 NSCLC) was over 100 µM, the TGI (UACC-257 melanoma) was over 100 µM and the TGI (U251 CNS) was over 100 µM. The TGI (HOP-62 NSCLC) was over 100 µM, the TGI (KM12 colon) was over 100 µM and the TGI (UO-31 renal) was over 100 µM. It also gave a TGI (DMS 114 small cell lung) of over 100 µM, a TGI (HT29 colon) of over 100 µM and a TGI (SK-OV-3 ovarian) of over 100 µM. For the same compound, the TGI (HOP-92 NSCLC) was over 100 µM, the TGI (HL-60(TB) leukemia) was over 100 µM and the TGI (786-0 renal) was over 100 µM. For the same compound, the TGI (IGROV1 ovarian) was over 100 µM, the TGI (RPMI-8226 leukemia) was over 100 µM and the TGI (OVCAR-5 ovarian) was over 100 µM. It also gave a TGI (RXF 393 renal) of over 100 µM, a TGI (M14 melanoma) of over 100 µM and a TGI (DMS 273 small cell lung) of over 100 µM. The TGI (K-562 leukemia) was over 100 µM, the TGI (KM20L2 colon) was over 100 µM and the TGI (SF-295 CNS) was over 100 µM. For the same compound, the TGI (EKVX NSCLC) was over 100 µM, the TGI (UACC-62 melanoma) was over 100 µM and the TGI (LXFL 529 NSCLC) was over 100 µM. The TGI (SK-MEL-2 melanoma) was over 100 µM, the TGI (SN12C renal) was over 100 µM and the TGI (NCI-H460 lung) was over 100 µM. It also gave a TGI (SNB-75 CNS) of over 100 µM, a TGI (SW-620 colon) of over 100 µM and a TGI (CCRF-CEM leukemia) of over 100 µM.
Compound `N#CNCC(COCc1ccccc1)c1ccccc1` (stereo unspecified) has a TGI (ACHN renal) of over 100 µM, a TGI (MOLT-4 leukemia) of over 100 µM and a TGI (SK-MEL-5 melanoma) of over 100 µM. The TGI (HOP-18 NSCLC) was over 100 µM, the TGI (OVCAR-8 ovarian) was over 100 µM and the TGI (NCI-H226 lung) was over 100 µM. The TGI (HCT-116 colon) was over 100 µM, the TGI (SF-268 CNS) was over 100 µM and the TGI (OVCAR-4 ovarian) was over 100 µM. For the same compound, the TGI (TK-10 renal) was over 100 µM, the TGI (A498 renal) was over 100 µM and the TGI (M19-MEL melanoma) was over 100 µM. For the same compound, the TGI (NCI-H522 lung) was over 100 µM, the TGI (COLO 205 colon) was over 100 µM and the TGI (LOX IMVI melanoma) was over 100 µM. For the same compound, the TGI (MALME-3M melanoma) was over 100 µM, the TGI (RXF-631 renal) was over 100 µM and the TGI (SF-539 CNS) was over 100 µM. It also gave a TGI (HCT-15 colon) of over 100 µM, a TGI (HCC-2998 colon) of over 100 µM and a TGI (SK-MEL-28 melanoma) of over 100 µM. The TGI (XF 498 CNS) was over 100 µM, the TGI (NCI-H23 lung) was over 100 µM and the TGI (SNB-19 CNS) was over 100 µM. For the same compound, the TGI (A549 NSCLC) was over 100 µM, the TGI (U251 CNS) was over 100 µM and the TGI (HOP-62 NSCLC) was over 100 µM. It also gave a TGI (UO-31 renal) of over 100 µM, a TGI (DMS 114 small cell lung) of over 100 µM and a TGI (SK-OV-3 ovarian) of over 100 µM. It also gave a TGI (HOP-92 NSCLC) of over 100 µM, a TGI (HL-60(TB) leukemia) of over 100 µM and a TGI (786-0 renal) of over 100 µM. For the same compound, the TGI (IGROV1 ovarian) was over 100 µM, the TGI (RPMI-8226 leukemia) was over 100 µM and the TGI (RXF 393 renal) was over 100 µM. For the same compound, the TGI (M14 melanoma) was over 100 µM, the TGI (DMS 273 small cell lung) was over 100 µM and the TGI (K-562 leukemia) was over 100 µM. It also gave a TGI (KM20L2 colon) of over 100 µM, a TGI (EKVX NSCLC) of over 100 µM and a TGI (UACC-62 melanoma) of over 100 µM. The TGI (SK-MEL-2 melanoma) was over 100 µM, the TGI (SN12C renal) was over 100 µM and the TGI (NCI-H460 lung) was over 100 µM. It also gave a TGI (SNB-75 CNS) of over 100 µM, a TGI (SW-620 colon) of over 100 µM and a TGI (CCRF-CEM leukemia) of over 100 µM.

— PubChem BioAssay (NCI)
